Experiment [1] deals with Phosphoenolpyruvate carboxykinase, cytosolic [GTP] [H477R] (Rat, UniProt P07379, H477R). Nature of the experiment: PEPCK Inhibition Assay. How it is done: (§1) The inhibition of H477R PEPCK by β-sulfopyruvate (βSP), oxalate, and GMPPCP was conducted in the direction of PEP synthesis (OAA → PEP). The Michaelis constant of OAA was determined at various fixed concentrations of β-SP (0−100 μM) or oxalate (0−1000 μM), and the Michaelis constant for GTP was determined at various fixed concentrations of GMPPCP (0-800 μM).

Experiment [2] deals with T1, Phosphoenolpyruvate carboxykinase, cytosolic [GTP] (Rattus norvegicus, UniProt P07379).
T1 sequence (P07379 whole entry): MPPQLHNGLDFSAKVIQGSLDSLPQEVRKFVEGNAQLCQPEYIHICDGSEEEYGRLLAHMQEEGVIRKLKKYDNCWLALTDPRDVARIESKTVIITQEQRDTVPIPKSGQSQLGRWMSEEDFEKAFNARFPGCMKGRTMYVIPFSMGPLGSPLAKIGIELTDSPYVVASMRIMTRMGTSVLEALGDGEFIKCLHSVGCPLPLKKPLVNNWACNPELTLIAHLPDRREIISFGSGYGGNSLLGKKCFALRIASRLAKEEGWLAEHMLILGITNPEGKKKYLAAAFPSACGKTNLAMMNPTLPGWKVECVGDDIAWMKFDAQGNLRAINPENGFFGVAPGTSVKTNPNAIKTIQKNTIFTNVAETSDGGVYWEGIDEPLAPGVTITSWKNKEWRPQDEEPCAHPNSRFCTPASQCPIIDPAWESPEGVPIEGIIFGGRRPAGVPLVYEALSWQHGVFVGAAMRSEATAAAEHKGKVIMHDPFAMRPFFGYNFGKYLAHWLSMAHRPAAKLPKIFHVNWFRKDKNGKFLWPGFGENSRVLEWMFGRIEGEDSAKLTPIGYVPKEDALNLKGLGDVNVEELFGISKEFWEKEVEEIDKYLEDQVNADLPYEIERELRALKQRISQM
The experiment is described as follows: PEPCK Inhibition Assay. How it is done: as §1

Molecules are shown by their SMILES.

Phosphoenolpyruvate carboxykinase, cytosolic [GTP] [H477R], sequence (P07379 whole entry H477R): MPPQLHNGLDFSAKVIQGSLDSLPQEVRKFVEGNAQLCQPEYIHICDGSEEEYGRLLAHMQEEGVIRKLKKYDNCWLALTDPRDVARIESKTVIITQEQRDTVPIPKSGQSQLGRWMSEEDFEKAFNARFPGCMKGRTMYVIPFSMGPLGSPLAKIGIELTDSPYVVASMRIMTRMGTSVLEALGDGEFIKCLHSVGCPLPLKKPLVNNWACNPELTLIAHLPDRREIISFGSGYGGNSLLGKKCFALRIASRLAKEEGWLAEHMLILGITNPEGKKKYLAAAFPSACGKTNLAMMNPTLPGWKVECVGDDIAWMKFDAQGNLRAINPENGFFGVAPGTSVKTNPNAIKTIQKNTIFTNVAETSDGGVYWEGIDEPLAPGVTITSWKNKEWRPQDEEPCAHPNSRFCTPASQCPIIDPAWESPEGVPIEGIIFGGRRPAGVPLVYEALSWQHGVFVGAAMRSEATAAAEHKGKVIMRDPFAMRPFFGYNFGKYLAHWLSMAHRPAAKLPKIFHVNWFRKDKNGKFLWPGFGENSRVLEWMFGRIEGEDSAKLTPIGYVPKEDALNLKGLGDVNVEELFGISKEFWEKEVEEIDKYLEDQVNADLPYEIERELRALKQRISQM

What is called Ki is the equilibrium dissociation constant of an inhibitor or competing ligand from its target. Regarding `C=C(OP(=O)(O)O)C(=O)O` [PHOSPHOENOLPYRUVATE], the inhibition constant (Ki) in experiment [1] was found to be 289 µM.
On the same count and under the same terms, in the case of `O=C(O)CC(=O)C(=O)O` [keto-Oxaloacetate] it was 441 µM.
Consider `Nc1nc(O)c2ncn([C@@H]3O[C@H](COP(=O)(O)OP(=O)(O)C[P+]([O-])(O)O)[C@@H](O)[C@H]3O)c2n1` [β,γ-methyleneguanosine 5′-triphosphate], for which the results for the Ki in experiment [2] and in experiment [1] were 150 µM and 696 µM, respectively.
For `O=C(O)C(=O)CS(=O)(=O)O` [β-Sulfopyruvate], the Ki in experiment [1] was found to be 37 µM.

The values are drawn from BindingDB's records for doi:10.1021/acs.biochem.7b00178 (University of Waterloo, 2017).
